In US20120094295A1, “NEURODEGENERATIVE DISEASE DIAGNOSTIC COMPOSITIONS AND METHODS OF USE” (The Johns Hopkins University, priority 2008, published 2012):
Read-outs that look alike come from different tables or passages of the source.

What was measured:
[1] = Human plasma pharmacokinetics of thiamphenicol in healthy volunteers; type: in vivo; details: for AUC / Cmax / half-life / Tmax: human, plasma, po
[2] = Safety and tolerability in healthy volunteers; type: in vivo, human; details: 750 or 1500 mg once a day oral, 14 days
Method: Thirty-four normal volunteers were divided into three groups: placebo (N=6), TAP 750 mg administered orally once a day (N=12) and TAP 1500 mg administered orally once a day (N=12). Nasal biopsies were taken on day −1 (before drug treatment) and day 14. Plasma pharmacokinetics were done on day 1 and 13 and cerebrospinal fluid samples were taken on day 13 to study the levels of TAP in the brain.
R UX122 was administered in 3 groups (placebo, 750 mg/day, 1500 mg/day) starting day 1 to day 14. Blood samples were taken throughout the trial period to obtain basic pharmacokinetic analyses as well as to monitor for safety and tolerability. Every patient underwent a spinal tap to collect CSF on day 13.

[3] = tested on: EAAT1 mRNA; assay: qPCR of nasal biopsy samples before and after drug treatment; type: in vivo, human; details: healthy volunteers, 750 or 1500 mg once a day oral, day 14 vs day -1
Method: (§1) Nasal biopsies were performed the day before the beginning of drug treatment (day −1) and on day 14. mRNA levels of several genes were quantified by qPCR analysis. Data are presented as fold increases in mRNA levels after drug treatment for each individual patient.
(§2) Nasal biopsies were taken on day −1 (before drug treatment) and day 14. […] In addition to EAAT2, the mRNA levels of the following genes were measured: GFAP (astrocytic expression in CNS), EAAT1 (astrocytic expression in CNS, expressed in precursor neuronal cells in olfactory epithelium), OMP (neuronal expression in olfactory epithelium and CNS), and MCT-4. […] The intra-patient variability was obtained by comparing mRNA levels obtained from the left and right side of the nose of each volunteer. This was important since the drug study was designed to obtain a biopsy from one side of the nose before drug treatment and from the opposite side of the nose after drug treatment. This allowed each person to serve as their own control and provided an opportunity to follow changes in mRNA levels within individuals.
(§3) Human nasal biopsies were performed by otolaryngologists specializing in sinus surgery. […] Local anesthesia was used for the procedure. Local anesthesia was applied to the nasal cavity. Lidocaine liquid 4% (Xylocaine®) and oxymetazoline HCl 0.05% (Afrin®) was sprayed in the nose. Then, if needed, 1% lidocaine with 1/100,000 epinephrine was injected to provide both anesthesia and vasoconstriction.
(§4) The procedure was performed under endoscopic control and used either a small curette or biting forceps for tissue removal. To avoid trauma to the cribriform plate, the biopsies were usually taken from the upper nasal septum. […] The tissue was removed from either the front or the back of the olfactory cleft, and sometimes both. Up to two blocks of tissue (approximately 2 mm each) were collected from each side of the nose. […] Subjects were instructed not to blow their nose and not to perform any strenuous physical activity for 24 hours after the procedure.
(§5) Healthy volunteers underwent a nasal biopsy on day −1 on one side of the nose only. R UX122 was administered in 3 groups (placebo, 750 mg/day, 1500 mg/day) starting day 1 to day 14. Blood samples were taken throughout the trial period to obtain basic pharmacokinetic analyses as well as to monitor for safety and tolerability. […] On day 14, a nasal biopsy was done on the other side of the nose.
(§6) Total RNA was reversed transcribed using Applied Biosystems' high capacity cDNA archive kit. The quantitative real time RT-PCR assay was performed using the iCycler iQ Real-Time Detection System from BioRad. TaqMan Probes, which allow for specific mRNA amplification, were purchased from Applied Biosystems.

[4] = tested on: EAAT2/GLT-1 mRNA; assay: as above; type: in vivo, human; details: healthy volunteers, 750 or 1500 mg once a day oral, day 14 vs day -1
Method: as §1, §2, §3, §4, §5, §6

[5] = tested on: GFAP mRNA; assay: as above; type: in vivo, human; details: healthy volunteers, 750 or 1500 mg once a day oral, day 14 vs day -1
Method: as §1, §2, §3, §4, §5, §6

[6] = tested on: MCT-4 mRNA; assay: as above; type: in vivo, human; details: healthy volunteers, 750 or 1500 mg once a day oral, day 14 vs day -1
Method: as §1, §2, §3, §4, §5, §6

[7] = tested on: OMP mRNA; assay: as above; type: in vivo, human; details: healthy volunteers, 750 or 1500 mg once a day oral, day 14 vs day -1
Method: as §1, §2, §3, §4, §5, §6

[8] = tested on: EAAT2 promoter; assay: EAAT2 promoter luciferase reporter gene assay in immortalized astrocytes; type: cell-based, human; details: luciferase reporter driven by 2.5 kB EAAT2 promoter fragment, 72 hours
Method: (§7) FIG. 3A is a graph showing EAAT2 promoter activation. EAAT2 promoter activation was examined by measuring luciferase activity using a reporter gene construct driven by a 2.5 kB promoter fragment of EAAT2 (Rothstein et al., Nature. 2005 Jan. 6; 433(7021):73-7). […] Glutamate-uptake was measured using standard techniques. […] Cells were then exposed to an oxygen-glucose-free environment for 1.5 hours (Goldberg et al). After the oxygen-glucose deprivation, cells were washed back into normal artificial cerebral spinal fluid (ACSF) solution and maintained for another 23 hours at 37 C, 5% CO2. Neuronal cell death was determined by measuring […] (LDH) release. Cells treated with MK-801, 6-cyano-7-nitroquinoxaline-2,3-dione), (CNQX) and nimodipine (MCN) were used as a positive control for neuroprotective activity.

[9] = tested on: glutamate uptake; assay: Glutamate uptake in primary cultures of neurons and astrocytes; type: cell-based; details: primary mouse cultures of neurons and astrocytes, 72 hours
Method: as §7

[10] = tested on: primary mouse cultures of neurons and astrocytes; assay: Oxygen-glucose deprivation (OGD) assay, neuronal cell death by LDH release; type: cell-based; details: 72 hours treatment, then oxygen-glucose deprivation 1.5 hours
Method: as §7

[11] = tested on: GLT-1 mRNA; assay: GLT-1 mRNA in treated wild-type mice; type: in vivo, mouse; details: WT mice, 12.5 or 25 mg/kg/day oral, 10 days
Method: as §6

[12] = tested on: EAAT2/GLT-1; assay: EAAT2/GLT-1 gene expression in nasal olfactory epithelium; details: in vivo
[13] = tested on: glutamate transporter EAAT2/GLT-1; assay: Glutamate transporter function in vitro and in vivo
[14] = human, in vivo

CS(=O)(=O)c1ccc([C@@H](O)[C@@H](CO)NC(=O)C(Cl)Cl)cc1 [TAP, thiamphenicol]
plasma concentrations versus dose ([1]; 750 and 1500 mg/day oral): dose-related plasma concentrations | drug accumulation ([1]; 14 days once daily oral): no drug accumulation | AUC ([1]; 750 mg/day, oral 750 mg/day, Day 1): 42600 ng·h/mL | Cmax ([1]; 750 mg/day, oral 750 mg/day, Day 1, plasma): 6310 ng/mL | half-life ([1]; 750 mg/day, oral 750 mg/day, Day 1, read-out: T ½ (converted)): 4.1 ± 0.8 h | Tmax ([1]; 750 mg/day, oral 750 mg/day, Day 1, read-out: Tmax median(range)): 2 h | AUC ([1]; 750 mg/day, oral 750 mg/day, Day 13): 51100 ng·h/mL | Cmax ([1]; 750 mg/day, oral 750 mg/day, Day 13, plasma): 6550 ng/mL | half-life ([1]; 750 mg/day, oral 750 mg/day, Day 13, read-out: T ½ (converted)): 4.8 ± 0.6 h | Tmax ([1]; 750 mg/day, oral 750 mg/day, Day 13, read-out: Tmax median(range)): 2 h | AUC ([1]; 1500 mg/day, oral 1500 mg/day, Day 1): 88000 ng·h/mL | Cmax ([1]; 1500 mg/day, oral 1500 mg/day, Day 1, plasma): 10700 ng/mL | half-life ([1]; 1500 mg/day, oral 1500 mg/day, Day 1, read-out: T ½ (converted)): 4.2 ± 0.5 h | Tmax ([1]; 1500 mg/day, oral 1500 mg/day, Day 1, read-out: Tmax median(range)): 2.5 h | AUC ([1]; 1500 mg/day, oral 1500 mg/day, Day 13): 96700 ng·h/mL | Cmax ([1]; 1500 mg/day, oral 1500 mg/day, Day 13, plasma): 11000 ng/mL | half-life ([1]; 1500 mg/day, oral 1500 mg/day, Day 13, read-out: T ½ (converted)): 5.7 ± 1 h | Tmax ([1]; 1500 mg/day, oral 1500 mg/day, Day 13, read-out: Tmax median(range)): 2 h | half-life ([1]; 750 and 1500 mg/day oral, read-out: average half life): 4 to 6 h | serious adverse side-effects [2]: no serious adverse side-effects were reported | tolerability [2]: well tolerated at every dose | EAAT1 mRNA levels in olfactory epithelium after drug treatment [3]: no difference in mRNA levels | EAAT1 mRNA levels in olfactory epithelium after drug treatment ([3]; listed as thiamphenicol): no change in gene expression levels | EAAT2/GLT-1 mRNA levels in olfactory epithelium after drug treatment [4]: dose-dependent positive trend towards an increase in mRNA levels | EAAT2/GLT-1 mRNA levels in olfactory epithelium after drug treatment ([4]; listed as thiamphenicol): positive trend towards increased gene expression levels | GFAP mRNA levels in olfactory epithelium after drug treatment [5]: dose-dependent positive trend towards an increase in mRNA levels | GFAP mRNA levels in olfactory epithelium after drug treatment ([5]; listed as thiamphenicol): positive trend towards increased gene expression levels | MCT-4 mRNA levels in olfactory epithelium after drug treatment [6]: no difference in mRNA levels | MCT-4 mRNA levels in olfactory epithelium after drug treatment ([6]; listed as thiamphenicol): no change in gene expression levels | OMP mRNA levels in olfactory epithelium after drug treatment [7]: no difference in mRNA levels | OMP mRNA levels in olfactory epithelium after drug treatment ([7]; listed as thiamphenicol): no change in gene expression levels | EAAT2 promoter activation [8]: activated the transporter on a promoter level | glutamate uptake [9]: dose-dependently increased glutamate uptake | neuroprotection (neuronal cell death, LDH release) [10]: dose-dependent neuroprotection | GLT-1 mRNA [11]: dose-dependently increased | EAAT2/GLT-1 gene expression in nasal olfactory epithelium [12]: increased EAAT2/GLT-1 gene expression in nasal olfactory epithelium | glutamate transporter function [13]: increased transporter function in vitro and in vivo | correlation between plasma concentrations and CSF levels [14]: linear correlation

CO/N=C(\C(=O)N[C@@H]1C(=O)N2C(C(=O)O)=C(CSc3nc(=O)c(=O)[nH]n3C)CS[C@H]12)c1csc(N)n1 [ceftriaxone]
EAAT2 promoter activation [8]: activated the transporter on a promoter level | EAAT2/GLT-1 gene expression in nasal olfactory epithelium [12]: increased EAAT2/GLT-1 gene expression in nasal olfactory epithelium | glutamate transporter function [13]: increased transporter function in vitro and in vivo
